Values joined by “and” are separate entries in the source; they are usually repeats but may differ in a detail not shown here. Identical values can stand only once.
What was measured:
[1] = tested on: MV4-11 xenograft in BALB/cA Rag2-/-γc-/- mice; assay: Subcutaneous xenograft model (tumor volume, CD11b q-PCR, H3Ac, body weight); type: in vivo, mouse; details: for Tumor volume: MV4-11 subcutaneous xenograft, in mm³; for Tumor volume / body weight of mice: individual mice; for body weight of mice: subcutaneous MV4-11 AML mouse model
Procedure: (§1) The subcutaneous xenograft models of ML-2 and MV4-11 derived cells, 5 × 10^6 and 10 × 10^6 cells, respectively, diluted in 100 µL of saline solution were subcutaneously inoculated in the back left flank of female BALB/cA Rag2^−/−γc^−/− mice. When tumors became palpable, the mice were randomized into three groups: vehicle, CM-444 and CM-1758, (eight animals/group). Treatment with 10 mg/kg of CM-444 or CM-1758 i.p. was started 4 days after injection when all mice presented subcutaneous tumors and was administered for 5 consecutive days followed by 2 resting days over 3 weeks for the ML-2 model or daily for 2 weeks for the MV4-11 model. The control group received only 80% saline solution, 10% DMSO […] 10% Tween 20 (diluents of CM-444 and CM-1758). Tumor size was analyzed every 2–3 days using the following method: […], where D and d corresponded to the longest and shortest diameter, respectively. The maximal tumor size/burden permitted by the Animal Care and Ethics Committee of the University of Navarra is 2000 mm^3. This maximal tumor size/burden was not exceeded in any case. ML-2 and MV4-11 tumors were explanted for differentiation and global histone acetylation analysis. Histones were extracted, and a western blot of H3Ac was performed as described above. For the differentiation study, RNA was extracted, and q-PCR of CD11b was performed as described above (CD11b sequence primer can be found in Supplementary Table 10).

[2] = tested on: ML-2 xenograft in BALB/cA Rag2-/-γc-/- mice; assay: as above; type: in vivo, mouse; details: for Tumor volume: ML-2 subcutaneous xenograft, individual mice (Fig 3B); for body weight of mice: subcutaneous ML-2 AML mouse model, individual mice
Procedure: as §1

G9a = target: T1, G9a (Homo sapiens, UniProt Q96KQ7); assay: Epigenetic panel (BPS Bioscience); G9a TR-FRET IC50; type: biochemical
T1 sequence (Q96KQ7 1-1210): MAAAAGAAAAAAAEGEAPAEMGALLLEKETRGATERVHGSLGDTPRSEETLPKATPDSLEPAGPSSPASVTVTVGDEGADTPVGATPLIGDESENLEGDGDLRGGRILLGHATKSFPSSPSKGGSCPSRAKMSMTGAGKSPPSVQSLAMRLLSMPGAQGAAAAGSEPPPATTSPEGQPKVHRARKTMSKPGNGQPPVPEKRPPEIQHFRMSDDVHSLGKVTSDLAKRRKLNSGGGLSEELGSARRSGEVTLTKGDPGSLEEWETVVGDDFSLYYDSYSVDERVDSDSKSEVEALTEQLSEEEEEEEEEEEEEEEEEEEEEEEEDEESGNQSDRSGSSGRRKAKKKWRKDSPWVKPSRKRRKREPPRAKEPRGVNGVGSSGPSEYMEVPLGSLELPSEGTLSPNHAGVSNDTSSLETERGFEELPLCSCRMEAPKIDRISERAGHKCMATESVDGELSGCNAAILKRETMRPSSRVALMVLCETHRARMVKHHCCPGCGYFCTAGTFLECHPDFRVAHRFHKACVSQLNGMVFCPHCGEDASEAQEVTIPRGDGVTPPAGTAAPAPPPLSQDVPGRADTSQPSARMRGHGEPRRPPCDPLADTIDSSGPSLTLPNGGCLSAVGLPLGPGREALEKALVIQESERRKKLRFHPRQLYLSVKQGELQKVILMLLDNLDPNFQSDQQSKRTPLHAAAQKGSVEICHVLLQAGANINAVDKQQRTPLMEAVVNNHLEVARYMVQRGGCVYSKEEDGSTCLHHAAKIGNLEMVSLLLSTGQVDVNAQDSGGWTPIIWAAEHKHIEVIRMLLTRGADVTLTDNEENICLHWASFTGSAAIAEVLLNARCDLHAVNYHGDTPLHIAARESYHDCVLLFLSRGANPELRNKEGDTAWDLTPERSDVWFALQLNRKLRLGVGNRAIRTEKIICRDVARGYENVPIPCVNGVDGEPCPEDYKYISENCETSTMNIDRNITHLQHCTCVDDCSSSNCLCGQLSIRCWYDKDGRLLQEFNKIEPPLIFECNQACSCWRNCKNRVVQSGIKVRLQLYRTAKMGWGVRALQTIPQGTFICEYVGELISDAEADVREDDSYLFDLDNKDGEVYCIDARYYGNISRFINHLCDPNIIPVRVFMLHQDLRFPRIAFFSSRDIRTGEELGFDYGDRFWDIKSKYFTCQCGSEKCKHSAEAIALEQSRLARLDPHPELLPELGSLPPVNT
Procedure: DNMT1 and G9a IC50 values were measured using time-resolved fluorescence energy transfer assays, as described previously[18],[25],[26].
Binding experiments were performed in duplicate at a concentration of 10 μM.

In the case of `COc1cc2nc(-c3ccc(C)o3)cc(NCC3CCN(c4ncc(C(=O)NO)cn4)CC3)c2cc1OC` [CM-444, 2-[4-[[[6,7-dimethoxy-2-(5-methyl-2-furyl)-4-quinolyl]amino]methyl]-1-piperidyl]pyrimidine-5-carbohydroxamic acid], the “CD11b expression in explanted tumors” value ([1]; MV4-11 s.c., 10 mg/kg i.p.) is reported as “significant increase in CD11b expression”, the “H3Ac levels in tumors” value ([1]; MV4-11 s.c., 10 mg/kg i.p.) is reported as “increase in H3Ac levels” and the tumor growth ([1]; MV4-11 s.c., 10 mg/kg i.p. daily, 2 weeks) is reported as “very close to significance”. For the same compound, the Tumor volume ([1]; day 0) was 0, the Tumor volume ([1]; day 7) was 3.193 and the Tumor volume ([1]; day 9) was 111.805 and 139.808 and 128.905 and 58.5153 and 61.4614 and 71.8536 and 82.1349 and 57.0445 and 0 and 108.84. The Tumor volume ([1]; day 12) was 294.457 and 409.686 and 535.985 and 179.87 and 403.211 and 161.575 and 360.839 and 457.558 and 8.3776 and 264.463, the Tumor volume ([1]; day 14) was 459.841 and 410.79 and 840.745 and 257.398 and 607.597 and 355.301 and 487.51 and 302.43 and 18.6928 and 395.414 and the “Relative H3Ac/H3 total levels” value ([1]; after in vivo treatment, subcutaneous MV4-11 mouse model, western blot, individual tumors) was 0.9852 and 1.143 and 1.277 and 1.092 and 1.163 and 1.09. The “body weight of mice” value ([1]; day 1) was 21.9 and 20.2 and 23.1 and 24.4 (2×) and 23 and 20.9 and 24.3 and 21.3 and 23.6, the “body weight of mice” value ([1]; day 5, in g (unit assumed)) was 20.4 and 18.7 and 20.7 and 21.6 and 21.5 and 19 and 21.7 and 18.8 and 21.2 and 21 and the “body weight of mice” value ([1]; day 7) was 20.3 and 18.1 and 19.6 (2×) and 20.5 and 18.3 and 21.6 and 18.4 and 21 and 20.7. For the same compound, the “body weight of mice” value ([1]; day 9) was 20.7 (2×) and 19.1 (2×) and 20.2 and 19.2 and 20.4 (2×) and 18.9 and 20.6, the “body weight of mice” value ([1]; day 12) was 22.2 (2×) and 19.1 and 21.6 and 20 and 22.4 and 20.6 and 23 and 20.1 and 22.6 and the “body weight of mice” value ([1]; day 14) was 22.1 (2×) and 19.1 and 20.3 and 22.6 (3×) and 20.9 and 23.1 and 19.5. For the same compound, the “body weight of mice” value ([1]; day 16) was 21 (2×) and 19.6 and 22 and 21.9 and 20.1 and 24.8 and 20.6 and 22.3 (2×), the “CD11b expression, log10 (2-ΔΔCt)” value ([1]; tumors of the subcutaneous MV4-11 model, q-PCR, individual tumors) was 1.258 and 2.58 and 3.158 and 0.925 and the “CD11b expression in explanted tumors” value ([2]; ML-2 s.c., 10 mg/kg i.p.) was “significant increase in CD11b expression”. For the same compound, the “H3Ac levels in tumors” value ([2]; ML-2 s.c., 10 mg/kg i.p.) was “increase in H3Ac levels”, the tumor growth ([2]; ML-2 s.c., 10 mg/kg i.p., 5 days on/2 off, 3 weeks) was “inhibited tumor growth significantly” and the Tumor volume ([2]; day 0, in mm³) was 0. For the same compound, the Tumor volume ([2]; day 8) was 50.29 and 0 (2×) and 44.4222 and 26.1593 and 17.7985 and 33.6927 and 34.1731, the Tumor volume ([2]; day 11, in mm³) was 57.5494 and 54.0642 and 29.9608 and 34.453 and 70.3613 and 12.6567 and 13.356 and 62.0802 and the Tumor volume ([2]; day 13, in mm³) was 71.0807 and 75.9644 and 34.9942 and 17.4964 and 64.0599 and 59.7475 and 31.61 and 81.1976. For the same compound, the Tumor volume ([2]; day 15, in mm³) was 260.999 and 204.675 and 90.5639 and 88.4341 and 135.48 and 171.734 and 101.038 and 206.002, the Tumor volume ([2]; day 18, in mm³) was 480.691 and 730.912 and 126.029 and 148.778 and 375.191 and 457.823 and 357.768 and 468.956 and the Tumor volume ([2]; day 20, in mm³) was 765.508 and 824.168 and 527.843 and 397.65 and 611.294 and 688.039 and 576.047 and 641.268. The “Relative H3Ac/H3 total levels” value ([2]; after in vivo treatment, subcutaneous ML-2 mouse model, western blot, individual tumors) was 1.215 and 1.184 and 2.112 and 1.745 and 1.414 and 2.588, the “body weight of mice” value ([2]; day 4, in g (unit assumed)) was 25.5 and 22.7 and 24.1 and 24.4 and 23.6 and 21.4 and 26.1 and 23.7 and the “body weight of mice” value ([2]; day 6, in g (unit assumed)) was 24.2 and 22.1 and 23.5 and 23 and 22.4 and 20.6 and 24.7 and 22.8. For the same compound, the “body weight of mice” value ([2]; day 8) was 23 and 21.7 (2×) and 22.6 and 22.9 and 19.8 and 23.2 and 21.8, the “body weight of mice” value ([2]; day 11, in g (unit assumed)) was 25 and 22 and 24 and 24.2 and 22.6 and 21.1 and 24.3 and 21.9 and the “body weight of mice” value ([2]; day 13, in g (unit assumed)) was 24.5 and 21.9 and 23.2 and 22.6 and 22.9 and 21.2 and 24.7 and 22.3. The “body weight of mice” value ([2]; day 15) was 24.9 and 22.5 and 22.9 and 22.2 (2×) and 21.3 and 24.8 and 22.1, the “body weight of mice” value ([2]; day 18, in g (unit assumed)) was 24.7 and 23.2 and 23.6 and 22 and 23 and 21.6 and 24.9 and 23.5 and the “body weight of mice” value ([2]; day 20) was 24.4 and 23.5 and 23.1 (2×) and 20.8 and 21.2 and 25.5 and 23.3. For the same compound, the “CD11b expression from tumors measured by q-PCR” value ([2]; tumors of the subcutaneous ML-2 model, individual tumors (Fig 3C)) was 4.258 log10 (2-ΔΔCt) and 6.115 log10 (2-ΔΔCt) and 1.258 log10 (2-ΔΔCt) and 2.581 log10 (2-ΔΔCt) and 3.258 log10 (2-ΔΔCt), the IC50 (G9a) was > 10 µM and the inhibition at 10 µM (G9a; 10 µM) was 0%.

From publication PMC11219871, “Epigenetic-based differentiation therapy for Acute Myeloid Leukemia” (Nature Communications, 2024)
